According to patent publication US5968526A, “T cell epitopes of the major allergens from Dermatophagoides (house dust mite)” (Immulogic Pharamaceutical Corporation, priority 1995, dated 1999):
One block for each substance: values may come before it.

Key:
[1] = test system: T cell lines primed in vitro to Der p II; test: secondary proliferation of Der p II-primed T cell lines (Examples VIII, X, XI); assay type: cell-based, human; settings: Der p II primed; 26 positive experiments; FIG. 12
Description: Experiments similar to those of Example V were performed to determine the T cell-reactive areas of the Der p II protein. For example, PBMC from house dust mite-allergic patient 348 were isolated as described in Example V and were stimulated in vitro with 20 μg/ml purified native Der p II.
The above procedure was followed with a number of patients except in individual cases, T cell lines were primed with recombinant Der p II at 20 μg/ml or at 3 μg/ml and x-irradiated (3500 Rads) autologous PBMC were used as antigen-presenting cells. The data was analyzed as described in Example V, except the ranked sum of peptide responses was analyzed assigning a value of 3, 2 or 1 to the three highest S.I. responses.
A study similar to that described in Example VII was carried out to determine the T cell cross-reactivity of the Der p II and Der f II proteins. T cells primed with the Der f II protein were challenged with various Der f II peptides and a set of substantially matching Der p II peptides.
Another experiment following the procedure described in Example VIII analyzed the response of 29 patients primed in vitro to the Der p II protein and challenged with selected peptides derived from the Der p II sequence.

[2] = test system: T cell lines primed in vitro to Der f II; test: secondary proliferation of Der f II-primed T cell lines (Examples IX, X, XI); assay type: cell-based, human; settings: for T cell reactivity: overlapping Der f II peptides, 10 positive experiments, FIG. 10; for T cell response: patient 384, recombinant Der f II primed, data not shown
Description: Experiments similar to those of Example V were performed to determine the T cell-reactive areas of the Der f II protein. For example, PBMC from house dust mite-allergic patient 384 were stimulated in vitro with purified recombinant Der f II and the T cell line was then challenged in the presence of x-irradiated (25,000 Rads) autologous Epstein-Barr virus transformed B cells as antigen presenting cells with various overlapping […]. The results of this proliferation assay indicate that T cells from this particular patient respond well to peptides DF II-1, DF II-2, DF II-3.1, DF II-4.5, DF II-15, DF II-16, and DF I-19.1 (data not shown).
The above procedure was followed with 10 patients, except in individual cases, T cell lines were primed by stimulating the patient PBMC with 20 μg/ml or 3 μg/ml purified native Der f II, and were assayed in the presence of x-irradiated (3500 Rads) autologous PBMC as antigen-presentingcells.
A study similar to that described in Example VII was carried out to determine the T cell cross-reactivity of the Der p II and Der f II proteins. T cells primed with the Der f II protein were challenged with various Der f II peptides and a set of substantially matching Der p II peptides. […]

[3] = test system: PBMC from mite-allergic patient; test: primary T cell (PBMC) proliferation, mite-allergic patient, tritiated thymidine; assay type: cell-based, human; settings: medium 1071 ± 30
Description: Peripheral blood mononuclear cells (PBMC) were purified by Ficoll-Hypaque centrifugation of a peripheral blood specimen from mite-allergic patient and were assayed for proliferation in response to various antigens, i.e., affinity-purified Der p I, affinity purified Der p II, various Der p I and Der p II peptides. For assay, 5×10^4 PBMC were cultured in triplicate microwells for 7 days at 37° C. in the presence of various concentrations of antigen in 200 μl RPMI-1640 containing 5% human AB serum. Each well then received 1 μCi tritiated thymidine for 16 hours. The counts incorporated were collected onto glass fiber filters and processed for liquid scintillation counting. […] The CPM +/- standard deviation are shown. The stimulation index of each response (S.I.) is the ratio of the ^3 H-thymidine CPM incorporated by the cells in response to antigen divided by the ^3 H-thymidine CPM incorporated by cells in medium only. […] Thus, these peptides contain Der p I or Der p II T cell epitopes recognized by T cells from this particular allergic patient.

[4] = test system: T cell lines primed in vitro to Der p I; test: secondary proliferation of Der p I-primed T cell lines (Examples V, VII, XI); assay type: cell-based, human; settings: overlapping Der p I peptides; 33 positive experiments
Method in brief: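 PBMC were primed with native or recombinant Der p I (10 or 20 μg/ml) for 7 days, then expanded with IL-2 and IL-4. Resting T cells (2×10^4) were cultured 3 days with irradiated autologous EBV-B cells or PBMC and titrated protein or peptides, then pulsed 16 h with 1 μCi ³H-thymidine. S.I. was peak-response CPM over medium-only CPM, with S.I. ≥2.0 scored positive.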

[5] = test system: T cell lines primed in vitro with Der p I; test: T cell proliferation with fine map and modified Group I peptides (Example XIV); assay type: cell-based, human; settings: for T cell response, Group I peptides: FIGS. 31a-b
Description: Long term T cell lines were established by stimulation of 2×10^6 PBL/ml in bulk cultures of complete medium (RPMI-1640, 2 mM L-glutamine, 100 U/ml penicillin/streptomycin, 5×10^-5 M 2-mercaptoethanol, and 10 mM HEPES supplemented with 5% heat inactivated human AB serum) with 30 μg/ml of purified native Der p I or Der p II for 5-6 days at 37° C. in a humidified 5% CO2 incubator to select for house dust mite protein allergen reactive T cells. This amount of priming antigen was determined to be optimal for the activation of T cells from house dust mite allergic patients. Viable cells were purified by LSM centrifugation and cultured in complete medium supplemented with 5 units recombinant human IL-2/ml and 5 units recombinant human IL-4/ml for up to three weeks until the cells no longer responded to lymphokines and were considered "rested". The ability of the T cells to proliferate to selected peptides, purified Der p I or Der p II, or positive (PHA) controls or negative controls (medium only) was then assessed. For assay, 2×10^4 rested cells were restimulated in the presence of 2×10^4 autologous Epstein-Barr virus (EBV)-transformed B cells (prepared as described below) (gamma-irradiated with 25,000 RADS) or with 5×10^4 autologous PBMs (gamma-irradiated with 3500 RADS), with 2-50 μg/ml of purified native Der p I or Der p II in a volume of 200 μl complete medium in duplicate or triplicate wells in 96-well round bottom plates for 3 days. Each well then received 1 μCi tritiated thymidine for 16-20 hours. The counts incorporated were collected onto glass fiber filter mats and processed for liquid scintillation counting. […] The titrations were used to optimize the dose of peptides in T cell assays.
The maximum response in a titration of each peptide is expressed as the stimulation index (S.I.). The S.I. is the counts per minute (CPM) incorporated by cells in response to peptide, divided by the CPM incorporated by cells in medium only. […] The positive results were used in calculating mean stimulation indices for each peptide for the individual patient tested.
The above procedure was followed with 18 patients in the studies using peptides derived from Der p I and Der f I (FIGS. 31a-b), and 21 patients in the studies with Der p II peptides (FIGS. 32a-b). Individual patient results were used in calculating the mean S.I. for each peptide if the patient responded to the Der p I or Der p II protein at an S.I. of 2.0 or greater and the patient responded to at least one peptide derived from a house dust mite allergen at an S.I. f 2.0 or greater. A summary of positive experiments from the patients tested is shown in FIGS. 32a and 32b and FIGS. 33a and 33b. The bars represent the positivity index. […] In parenthesis above each bar are the mean stimulation indices for each peptide or protein for the group of patients tested.
Autologous EBV-transformed cell lines were γ-irradiated with 25,000 Rad and used as antigen presenting cells in secondary proliferation assays and secondary bulk stimulations. These EBV-transformed cell lines were made by incubating 5×10^6 PBL with 1 ml of B-59/8 Marmoset cell line (ATCC CRL1612, American Type Culture Collection, Rockville, Md.) conditioned medium in the presence of 1 μg/ml phorbol 12-myristate 13-acetate (PMA) at 37° C. for 60 minutes in 12×75 mm polypropylene round-bottom Falcon snap cap tubes (Becton Dickinson Labware, Lincoln Park, N.J.). These cells were then diluted to 1.25×10^6 cells/ml in RPMI-1640 as described above except supplemented with 10% heat-inactivated fetal bovine serum and cultured in 200 μl aliquots in flat bottom culture plates until visible colonies were detected. They were then transferred to larger wells until the cell lines were established.

[6] = test system: T cell lines primed in vitro to Der f I; test: secondary proliferation of Der f I-primed T cell lines (Examples VI, VII, XI); assay type: cell-based, human; settings: Der f I primed; 8 positive experiments; FIG. 8
Description: Experiments similar to those of Example V were performed to determine. the T cell-reactive areas of the Der f I protein. For example, PBMC from house dust mite-allergic patient 783 were isolated as described in Example V and were stimulated in vitro-- with recombinant purified Der f I at 20 μg/ml. The results of the proliferation assay with Der f I peptides using x-irradiated (3500 Rads) autologous PBMC as antigen presenting cells indicate that T cells from this patient respond to the peptides DF I-8.1, DF I-9, DF I-6, DF I-10, DF I-2.1, DF I-3, DF I-11, DF I-5, DF I-1, and DF I-17 (data not shown).
The above procedure was followed in a number of patients except in individual cases, T cell lines were primed with affinity purified Der f I at 20 μg/ml or at 10 μg/ml and x-irradiated (25,000 Rads) autologous Epstein-Barr virus transformed B cells were used as antigen presenting cells. […]
Similarly, the procedure described in Example VI was followed with T cell lines from 9 patients primed in vitro to the Der f I protein then analyzed for response to selected peptides derived from the protein. The data was analyzed as described in Example VI. […]

human IgE = test: direct binding ELISA of IgE to mite allergen proteins and peptides; settings: plasma of 19 mite-allergic patients and pool of 18; Example XV
Description: The coating antigens were removed and the wells are blocked with 0.5% gelatin in PBS, 300 μl/well for 2 hours at room temperature. Pooled human plasma (a mix of plasma samples from 20 patients that were skin test positive for commerical mite extract) was serially diluted with PBS-Tween 20 (PBS with 0.05% nonionic detergent Tween-20 Sigma, St. Louis, Mo.) and 100 μl/well a.backslash.was added and incubated overnight at 4° C. (plasma dilutions were tested in duplicate). The second antibody (biotinylated goat anti-Human IgE, 1:1000, Kirkegaard & Perry Laboratories Inc, Gaithersburg, Md.), was added at 100 μl/well for one hour at room temperature. This solution was removed and streptavidin-HRPO, 1:10000, (Southern Biotechnology Associates, Inc., Birmingham, Ala.) was then added at 100 μl/well for one hour at room temperature (all wells are washed three times with PBS-Tween between each incubation step). TMB Membrane Peroxidase Substrate system (Kirkegaard & Perry Laboratories) was freshly miced, and added at […]. The color was allowed to develop for 2-5 minutes. The reaction was stopped by the addition of […] of 1M phosphoric acid. Plates were read on a Microplate IL310 Autoreader (Biotech Instruments, Winooski, Vt.) with a 450 nm filter. The absorbance levels of duplicate wells were averaged. The order of coating antigens listed vertically in these figure legends corresponds in orDer from left to right to the coating antigens listed for each histogram.
The antigen preparation that was used as a positive control was a mixture of the four major biochemically purified mite allergens (term PMA for Purified Mite Allergen); Der f I, Der f II, Der p I and Der p II. The stock was generated at a concentration of 100 μgs of each protein per millimeter or 400 μgs total protein/ml. This preparation was used on each coated ELISA plate.

Substance: DF II-1: Der f II peptide (DQVDVKDCANNEIKKVMVDG)
- T cell response to Der f II peptides [1]: respond significantly
- T cell reactivity [2]: significant areas of T cell reactivity
- T cell response [2]: respond well

Substance: DF II-3.1: Der f II peptide (HRGKPFTLEALFDANQNTK)
- T cell response [2]: respond well

Substance: DF II-4.5: Der f II peptide (TLEALFDANQNTKTAKIEIKASLDG)
- T cell response to Der f II peptides [1]: respond significantly
- T cell reactivity [2]: significant areas of T cell reactivity
- T cell response [2]: respond well

Substance: DF II-13.1: Der f II peptide (HGSDPCIIHRGKPFTLEALFDANQNTKTA)
- T cell reactivity [2]: significant areas of T cell reactivity

Substance: DF II-15: Der f II peptide (KIEIKASLDGLEIDVPGIDTNACHFMK)
- T cell response to Der f II peptides [1]: respond significantly
- T cell reactivity [2]: significant areas of T cell reactivity
- T cell response [2]: respond well

Substance: DF II-16: Der f II peptide (LEIDVPGIDTNACHFMKCPLVKGQQY)
- T cell response [2]: respond well

Substance: DF II-17: Der f II peptide (CPLVKGQQYDAKYTWNVPKIAPKSENV)
- T cell response to Der f II peptides [1]: respond significantly
- T cell reactivity [2]: significant areas of T cell reactivity

Substance: DP I-2: Der p I peptide (EIDLRQMRTVTPIRMQGGCGSCWAFSG)
- CPM ± S.D. ([3]; 10 μg/ml): 1395 ± 47 CPM
- CPM ± S.D. ([3]; 30 μg/ml): 1283 ± 34 CPM
- CPM ± S.D. ([3]; 100 μg/ml): 1486 ± 38 CPM
- T cell reactivity [4]: significant regions of T cell reactivity
- T cell response, Group I peptides [5]: positive response

Substance: DP I-4: Der p I peptide (VAATESAYLAHRNQSLDLAEQ)
- T cell reactivity [4]: significant regions of T cell reactivity
- T cell response to Der p I peptides [6]: respond significantly
- T cell response, Group I peptides [5]: positive response

- IgE binding (ELISA), modified peptides (human IgE): No plasma samples contained IgE
Substance: DP I-23.35: modified Der p I peptide (DEKEGVVQESYYRYVAREQSCRRPNADKE)
- positive T cell responses, modified peptides ([5]; 18 T cell lines, affinity purified Der p I primed, FIG. 31a): all eighteen T cell lines responded positively
- T cell response, Group I peptides [5]: positive T cell studies

Substance: DP II-25.2: Der p II peptide (TVKVLGDDGVLASAIATHAKIRD)
- ranked sum of peptide responses ([2]; FIG. 18b, preferred Der p II peptides): highest ranked sum
